{
  "source": "patent US5444043A",
  "about": "“Cyclic heptapeptide anti-inflammatory agent” (The Regents of the University of California, priority 1994, dated 1995)",
  "assay_type_in_all_cases": "in vivo",
  "key": {"[1]": {"tested_on": "phorbol-induced inflammation (edema) of mouse ears", "assay": "Inhibition of mouse ear edema, time of addition study", "settings": "50 ug/ear", "protocol": "Cyclomarin-A was tested by measuring inhibition of phorbol-induced inflammation (edema) of mouse ears. […] […] PMA alone (2 microgram per ear) or in combination with varying amounts of cyclomarin-A was applied to the left ears of (5 mice per treatment group). Acetone was applied to all right ears. After a 3-hour and 20-minute incubation at 23° C., the mice were sacrificed, the ears removed and bores taken and weighed. Edema was measured by subtracting the weight of the right ear (acetone control) from the weight of the left ear (treated). The results were recorded as a percent decrease (inhibition) or percent increase (potentiation) in edema relative to the PMA control group edema."}, "[2]": {"tested_on": "phorbol-induced inflammation (edema) of mouse ears", "assay": "Inhibition of mouse ear edema, systemic study (IP)", "settings": "1 hour prior"}, "[3]": {"tested_on": "phorbol-induced inflammation (edema) of mouse ears", "assay": "Inhibition of phorbol (PMA)-induced mouse ear edema, standard protocol (topical)", "settings": "for Inhibition of Mouse Ear Edema: 3 h 20 min, relative to PMA control", "protocol": "Cyclomarin-A was tested by measuring inhibition of phorbol-induced inflammation (edema) of mouse ears. […] The compound is topically applied in acetone to the inside pinnae of the ears of mice in a solution containing the edema-causing irritant, i.e. phorbol 12-myristate 13-acetate (PMA). PMA alone (2 microgram per ear) or in combination with varying amounts of cyclomarin-A was applied to the left ears of (5 mice per treatment group). Acetone was applied to all right ears. After a 3-hour and 20-minute incubation at 23° C., the mice were sacrificed, the ears removed and bores taken and weighed. Edema was measured by subtracting the weight of the right ear (acetone control) from the weight of the left ear (treated). The results were recorded as a percent decrease (inhibition) or percent increase (potentiation) in edema relative to the PMA control group edema."}},
  "data": [
    {"substance": "cyclomarin-A", "values": [
      {"measurement": "Inhibition of Mouse Ear Edema", "setting": "[1]; time of addition 0 mins", "result": 82.8, "unit": "%"},
      {"measurement": "Inhibition of Mouse Ear Edema", "setting": "[1]; time of addition +30 mins", "result": 50.9, "unit": "%"},
      {"measurement": "Inhibition of Mouse Ear Edema", "setting": "[1]; time of addition +60 mins", "result": 12.0, "unit": "%"},
      {"measurement": "Inhibition of Mouse Ear Edema", "setting": "[1]; time of addition -30 mins", "result": 79.4, "unit": "%"},
      {"measurement": "Inhibition of Mouse Ear Edema", "setting": "[1]; time of addition -60 mins", "result": 51.8, "unit": "%"},
      {"measurement": "Inhibition of Mouse Ear Edema", "setting": "[2]; 25 mg/kg IP", "result": 28.0, "unit": "%"},
      {"measurement": "Inhibition of Mouse Ear Edema", "setting": "[2]; 50 mg/kg IP", "result": 55.0, "unit": "%"},
      {"measurement": "Inhibition of Mouse Ear Edema", "setting": "[2]; 100 mg/kg IP", "result": 48.0, "unit": "%"},
      {"measurement": "Inhibition of Mouse Ear Edema", "setting": "[3]; 5 ug/ear topical with PMA 2 microgram per ear", "result": 3.0, "unit": "%"},
      {"measurement": "Inhibition of Mouse Ear Edema", "setting": "[3]; 10 ug/ear topical with PMA 2 microgram per ear", "result": 39.0, "unit": "%"},
      {"measurement": "Inhibition of Mouse Ear Edema", "setting": "[3]; 25 ug/ear topical with PMA 2 microgram per ear", "result": 57.0, "unit": "%"},
      {"measurement": "Inhibition of Mouse Ear Edema", "setting": "[3]; 50 ug/ear topical with PMA 2 microgram per ear", "result": 88.0, "unit": "%"},
      {"measurement": "Inhibition of Mouse Ear Edema", "setting": "[3]; 100 ug/ear topical with PMA 2 microgram per ear", "result": 96.2, "unit": "%"},
      {"measurement": "topical anti-inflammatory activity", "setting": "[3]; topical, statement in words", "result": "exhibit topical anti-inflammatory activity"}
    ]}
  ]
}
